According to ChEMBL document CHEMBL1681664, “Specific biotinylation of IMP dehydrogenase” (Bioorg Med Chem Lett, 2011):
Active and inactive are the calls of the source. No cut-off for these calls is given here.

Tests used:
[1] = molecular target: Inosine-5'-monophosphate dehydrogenase 2 (Homo sapiens) (UniProt P12268); assay: Inhibition of human IMPDH2 at 200 uM by SDS-PAGE in presence of 6 mM dithiothreitol
[2] = molecular target: Inosine-5'-monophosphate dehydrogenase 2 (Homo sapiens) (UniProt P12268); assay: Ratio of Kinact to Ki for human IMPDH2 at 25 degC
[3] = tested on: Escherichia coli; assay: Ratio of Kinact to Ki for Escherichia coli IMPDH at 25 degC
[4] = molecular target: Inosine-5'-monophosphate dehydrogenase 2 (Homo sapiens) (UniProt P12268); assay: Inhibition of human IMPDH2 at 100 to 500 uM at pH 8
[5] = molecular target: Inosine-5'-monophosphate dehydrogenase 2 (Homo sapiens) (UniProt P12268); assay: Ratio of Kinact to Ki for human IMPDH2 at 37 degC
[6] = molecular target: Inosine-5'-monophosphate dehydrogenase 2 (Homo sapiens) (UniProt P12268); assay: Inhibition of human IMPDH2 at 200 uM by SDS-PAGE
[7] = tested on: Escherichia coli; assay: Inhibition of GMPR in wild type Escherichia coli MG1655 cell lysate by SDS-PAGE
[8] = tested on: Escherichia coli; assay: Inhibition of IMPDH in wild type Escherichia coli MG1655 cell lysate by SDS-PAGE
[9] = tested on: Escherichia coli; assay: Inhibition of recombinant Escherichia coli IMPDH with active site Cys replaced with Ala mutant by SDS-PAGE
[10] = tested on: Escherichia coli; assay: Inhibition of recombinant Escherichia coli IMPDH by SDS-PAGE

Sequence of Inosine-5'-monophosphate dehydrogenase 2 (Homo sapiens) (P12268 2-514 limits assumed): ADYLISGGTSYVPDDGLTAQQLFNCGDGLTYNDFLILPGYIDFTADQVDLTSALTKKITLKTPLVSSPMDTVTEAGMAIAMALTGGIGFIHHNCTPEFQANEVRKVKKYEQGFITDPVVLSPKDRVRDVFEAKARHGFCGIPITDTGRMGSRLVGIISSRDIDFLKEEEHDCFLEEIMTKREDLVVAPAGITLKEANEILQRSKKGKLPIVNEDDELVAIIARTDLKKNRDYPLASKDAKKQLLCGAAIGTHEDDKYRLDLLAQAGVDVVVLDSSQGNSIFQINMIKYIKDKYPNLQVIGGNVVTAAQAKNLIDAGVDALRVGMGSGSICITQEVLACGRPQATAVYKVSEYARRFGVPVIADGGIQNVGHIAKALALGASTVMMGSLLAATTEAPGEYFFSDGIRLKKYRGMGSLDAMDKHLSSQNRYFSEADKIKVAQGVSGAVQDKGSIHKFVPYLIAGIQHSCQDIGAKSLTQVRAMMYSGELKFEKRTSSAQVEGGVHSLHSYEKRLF

| SMILES | inhibition [1] | Ratio [2] [M⁻¹ s⁻¹] | Ratio [3] [M⁻¹ s⁻¹] | inhibition [4] | Ratio [5] [M⁻¹ s⁻¹] | inhibition [6] | inhibition [7] | inhibition [8] | inhibition [9] | inhibition [10] |
| --- | --- | --- | --- | --- | --- | --- | --- | --- | --- | --- |
| O=P(O)(O)OC[C@H]1O[C@@H](n2cnc3c(Cl)ncnc32)[C@H](O)[C@@H]1O | inactive | 0.9 | 120 | – | – | – | – | – | – | – |
| O=C(CCCC[C@@H]1SC[C@@H]2NC(=O)N[C@@H]21)NCCCO[C@@H]1[C@H](O)[C@@H](COP(=O)(O)O)O[C@H]1n1cnc2c(Cl)ncnc21 | – | – | 130 | Active | 1.4 | Active | Active | Active | inactive | Active |
